# Results: patent US20230097253A1, “NOVEL QUINAZOLINE COMPOUND AS THERAPEUTIC AGENT FOR METABOLIC DISORDERS” (BIOWAY., INC, priority 2020, published 2023)
# Assays:
# DIAMOND™ mouse model = experiment: Insulin resistance test; type: in vivo; settings: insulin 0.75 UU/kg intraperitoneally after 6 hours fasting; at 0 and 90 minutes, statistical significance vs control group (VC); FIG. 20
# Experimental: The DIAMOND™ mouse model, an animal model prepared using a Western diet and sugar water, was used. The DIAMOND™ mice were induced with WDSW for 14 weeks, and 12 mice were used for the control group and 12 mice for the BW-3290 treatment group, and BW-3290 was orally administered at 16 mg/kg once daily for 8 weeks. An autopsy was performed at week 22, and blood collection and tissue storage were performed for the individuals in each group.
# The insulin resistance test was performed one week before autopsy, and the subject was fasted for 6 hours.
# Insulin was injected intraperitoneally at a concentration of 0.75 UU/kg, and the blood was collected 15 minutes, 30 minutes, 45 minutes, and 90 minutes after the injection, and the blood glucose levels were measured using the OneTouch Plus Ultra Glucometer and glucose scores were evaluated therefrom.
# 3T3-L1 cells = experiment: Inhibition of fat globule formation in adipocytes by Oil-Red-O staining; type: cell-based, mouse; settings: 3T3-L1 adipocytes, 0.5, 2.5, 10 and 20 μM
# Experimental: In order to confirm the effect of the compound on reducing fat accumulation on adipocytes, 3TL-L1 mouse fat progenitor cells (American Type Culture Collection) were cultured in an incubator set at 37° C. with 95% humidity and 5% CO2.
# Additionally, after sufficiently proliferating 3T3-L1 mouse adipocytes using a proliferation medium (Dulbecco's modified Eagle's medium (DMEM) supplemented with 10% bovine serum (BS), 100 U/mL of penicillin, and 100 μg/mL of streptomycin), the cells were treated with a differentiation medium (DMEM containing 10% FBS, 0.5 mM 3-isobutyl-1-methylxanthine, 1 […], and 5 μg/mL insulin) for 2 days.
# Thereafter, the cells were treated with an induction medium (DMEM containing 10% FBS and 5 μg/mL insulin) for 2 days, the maintenance medium (DMEM containing 10% FBS) was replaced daily to maintain the differentiated adipocytes until the end of the experiment.
# According to an embodiment of the present invention, in order to confirm the ability of the compound of Formula 2 to inhibit fat globule formation, the 3T3-L1 cells (which are fat progenitor cells) were induced to be differentiated into adipocytes, and then stained through Oil-Red-O staining. […]
# SIRT1 = target: T1, SIRT1 (Homo sapiens, UniProt Q96EB6); experiment: Measurement of SIRT1 activity (Sirt1 direct fluorescent screening assay kit); type: biochemical; settings: compared with the control (RSV, resveratrol); FIG. 14
# T1 construct: purchased Cayman
# T1 sequence (Q96EB6 1-747): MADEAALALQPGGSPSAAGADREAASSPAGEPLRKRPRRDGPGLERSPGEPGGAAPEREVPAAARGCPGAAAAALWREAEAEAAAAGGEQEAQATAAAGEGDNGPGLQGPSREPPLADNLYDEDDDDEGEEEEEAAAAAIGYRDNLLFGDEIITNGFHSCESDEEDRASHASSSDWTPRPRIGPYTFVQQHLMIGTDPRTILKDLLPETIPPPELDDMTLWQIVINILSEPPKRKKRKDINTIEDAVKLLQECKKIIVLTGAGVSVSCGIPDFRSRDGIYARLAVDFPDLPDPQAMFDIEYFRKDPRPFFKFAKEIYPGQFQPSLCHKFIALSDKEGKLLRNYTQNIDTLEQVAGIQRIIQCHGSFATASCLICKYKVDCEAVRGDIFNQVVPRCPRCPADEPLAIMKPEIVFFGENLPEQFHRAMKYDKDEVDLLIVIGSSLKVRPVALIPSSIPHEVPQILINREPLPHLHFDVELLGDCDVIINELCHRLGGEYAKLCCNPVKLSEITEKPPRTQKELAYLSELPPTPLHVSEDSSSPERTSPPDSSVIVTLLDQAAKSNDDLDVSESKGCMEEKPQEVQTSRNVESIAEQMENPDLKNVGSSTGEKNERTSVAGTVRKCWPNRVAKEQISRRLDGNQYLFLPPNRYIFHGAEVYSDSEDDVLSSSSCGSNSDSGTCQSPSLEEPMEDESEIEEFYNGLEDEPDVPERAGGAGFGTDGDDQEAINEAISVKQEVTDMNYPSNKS
# Experimental: All of the materials were provided from Sirt1 direct fluorescent screening assay kit (Cayman, Ann Arbor, Mich., USA).
# SIRT1, p53 conjugated aminomethylcoumarin (AMC) protein, and 3 mM NAD+ were added to diluted assay buffer (50 mM Tris-HCl, pH 8.0, 137 mM NaCl, 2.7 mM KCl, and 1 mM MgCl2).
# Three 100% initial activity wells among the 96-wells were added with 25 μL of assay buffer, 5 μL of diluted SIRT1, and 5 μL of a solvent.
# Three background wells among the 96-wells were added with 30 μL of assay buffer and […].
# Three sample wells among the 96-wells were added with 25 μL of assay buffer, 5 μL of diluted SIRT1, and 5 μL of a diluted test compound. The final DMSO concentration was lower than 2%. […]
# After removing the plate cover, the plate was read with Cytation 5 using an excitation wavelength at 360 nm and an emission wavelength at 450 nm.
# Then, the average level of fluorescence for each sample was measured.
# The fluorescence level of the background well was subtracted from the fluorescence level of the 100% starting active well and that of the sample well.
# To determine the percentage of each sample, each sample value was subtracted from the 100% initial activity value, divided by the 100% initial activity value, and multiplied by 100, and the resulting value was added to 100 and expressed as a percentage. […]
smiles,measurement,setting,value
"CC(C)C(Nc1ncnc2nc[nH]c12)c1nc2cccc(Cl)c2c(=O)n1-c1ccccc1 (stereo not shown) [BW-3290, 2-(1-((7H-purin-6-yl)amino)-2-methylpropyl)-5-chloro-3-phenylquinazolin-4(3H)-one]",glucose score,DIAMOND™ mouse model,decreased
same,fat globule staining (Oil-Red-O) compared to differentiation,"3T3-L1 cells; concentration-dependent, FIG. 5",lower level of fat globule staining compared to differentiation
same,amount of stained fat globules,3T3-L1 cells; FIG. 6,appeared less in a drug concentration-dependent manner
same,SIRT1 activity level,SIRT1,further increases
